ChEMBL document CHEMBL1201862, “PubChem BioAssay data set” (2004)
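Cells were grown in 96-well plates and exposed to each compound for 48 hours at five concentrations; endpoints were interpolated linearly between bracketing concentrations, or set to the highest concentration if not reached. Here, GI50 denotes the concentration required for 50% inhibition of growth.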 Active and inactive are the calls of the source. Rule as the data show it: active = GI50 up to about 1.1 µM and inactive = higher.

What was measured:
Assay in all cases: NCI tumour cell line growth inhibition, 48 h
[1] = tested on: 786-0
[2] = tested on: A549
[3] = tested on: COLO 205
[4] = tested on: HCT-116
[5] = tested on: K562
[6] = tested on: M14
[7] = tested on: MDA-MB-231
[8] = tested on: MOLT-4
[9] = tested on: NCI-H460
[10] = tested on: OVCAR-3
[11] = tested on: OVCAR-5
[12] = tested on: PC-3
[13] = tested on: RXF 393
[14] = tested on: SK-MEL-28
[15] = tested on: SN12C
[16] = tested on: SNB-19
[17] = tested on: SNB-75
[18] = tested on: SR
[19] = tested on: UACC-62

SMILES | GI50 [1] | GI50 [2] | GI50 [3] | GI50 [4] | GI50 [5] | GI50 [6] | GI50 [7] | GI50 [8] | GI50 [9] | GI50 [10] | GI50 [11] | GI50 [12] | GI50 [13] | GI50 [14] | GI50 [15] | GI50 [16] | GI50 [17] | GI50 [18] | GI50 [19]
N/C(S)=N/N=C/c1ccc(N)cn1 | 2.43 µM (inactive) | 3.54 µM (inactive) | 2.99 µM (inactive) | 3.98 µM (inactive) | 3.1 µM (inactive) | 2.21 µM (inactive) | > 6.79 µM (inactive) | 1.95 µM (inactive) | 3.09 µM (inactive) | 5.01 µM (inactive) | 9.06 µM (inactive) | 6.15 µM (inactive) | 3.42 µM (inactive) | > 10 µM (inactive) | 3.92 µM (inactive) | 9.89 µM (inactive) | 2.4 µM (inactive) | 3.67 µM (inactive) | 3.19 µM (inactive)
O=C1CCCC1C(=O)Nc1ccc2ccccc2c1 (stereo not given) | > 100 µM (inactive) | > 100 µM (inactive) | > 100 µM (inactive) | > 100 µM (inactive) | 53.5 µM (inactive) | > 100 µM (inactive) | > 100 µM (inactive) | 36.2 µM (inactive) | > 100 µM (inactive) | > 100 µM (inactive) | > 100 µM (inactive) | > 100 µM (inactive) | 44.5 µM (inactive) | > 100 µM (inactive) | > 100 µM (inactive) | > 100 µM (inactive) | 29.4 µM (inactive) | > 100 µM (inactive) | > 100 µM (inactive)
COc1ccc2[nH]c(S(=O)(=O)N3CC(CCl)c4ccc(N)cc43)cc2c1 (stereo not given) | 0.0771 µM (active) | 0.146 µM (active) | 4.42 µM (inactive) | 0.0269 µM (active) | < 0.01 µM (active) | 0.0568 µM (active) | 0.239 µM (active) | 0.0826 µM (active) | < 0.0189 µM (active) | 0.022 µM (active) | 10 µM (inactive) | 0.0973 µM (active) | 0.675 µM (active) | 13 µM (inactive) | 0.32 µM (active) | 8.22 µM (inactive) | 0.0718 µM (active) | < 0.01 µM (active) | 0.0773 µM (active)
COCn1cc(C2=C(C)C(=O)C(C)=C(C)C2=O)cn1 | 18 µM (inactive) | > 100 µM (inactive) | > 100 µM (inactive) | 20 µM (inactive) | 18.9 µM (inactive) | > 100 µM (inactive) | 18.6 µM (inactive) | 14.9 µM (inactive) | > 100 µM (inactive) | 19.5 µM (inactive) | > 100 µM (inactive) | > 100 µM (inactive) | > 100 µM (inactive) | > 100 µM (inactive) | > 100 µM (inactive) | > 100 µM (inactive) | 11.4 µM (inactive) | 39.4 µM (inactive) | > 100 µM (inactive)
O=C1C(Cl)=C(Nc2ccc(OC(F)(F)F)cc2)C(=O)c2c(O)ccc(O)c21 | 0.445 µM (active) | 1.22 µM (inactive) | 1.2 µM (inactive) | 0.203 µM (active) | 0.284 µM (active) | 0.423 µM (active) | 0.443 µM (active) | 0.359 µM (active) | 1.71 µM (inactive) | 0.505 µM (active) | 1.76 µM (inactive) | 0.679 µM (active) | 0.519 µM (active) | 0.762 µM (active) | 0.468 µM (active) | 1.22 µM (inactive) | 0.735 µM (active) | 0.275 µM (active) | 0.975 µM (active)
CN(C)c1cccc2c(S(=O)(=O)NCCCNCCN)cccc12 | 53.1 µM (inactive) | 66.5 µM (inactive) | 17.6 µM (inactive) | 36.2 µM (inactive) | 20.8 µM (inactive) | 18.9 µM (inactive) | 41.5 µM (inactive) | 18.6 µM (inactive) | 62.4 µM (inactive) | 62.5 µM (inactive) | 38.1 µM (inactive) | 44.2 µM (inactive) | 36.8 µM (inactive) | 46.1 µM (inactive) | 78 µM (inactive) | > 100 µM (inactive) | 13.6 µM (inactive) | 19.1 µM (inactive) | 51.2 µM (inactive)
O=C(O)c1c2c(cc3c1CC1(Cc4ccccc4C1=O)C3)CCC2 (stereo not given) | 47.5 µM (inactive) | 11.1 µM (inactive) | 17.4 µM (inactive) | 21.6 µM (inactive) | 5.79 µM (inactive) | 18.9 µM (inactive) | 34.6 µM (inactive) | 11.4 µM (inactive) | 4.62 µM (inactive) | 26.1 µM (inactive) | 65.5 µM (inactive) | 27.2 µM (inactive) | 25.8 µM (inactive) | 52 µM (inactive) | 46.5 µM (inactive) | 47 µM (inactive) | 26.5 µM (inactive) | 2.93 µM (inactive) | 21.8 µM (inactive)
CC1(C)N=C(N)N=C(N)N1CCCCc1ccccc1 | < 0.0305 µM (active) | 0.113 µM (active) | 0.433 µM (active) | 0.0364 µM (active) | < 0.0177 µM (active) | 0.181 µM (active) | > 64.9 µM (inactive) | 0.104 µM (active) | 0.151 µM (active) | 0.601 µM (active) | 1.99 µM (inactive) | 9.51 µM (inactive) | 0.422 µM (active) | 8.59 µM (inactive) | 0.82 µM (active) | 0.733 µM (active) | 15.4 µM (inactive) | < 0.0334 µM (active) | 0.453 µM (active)
CN(C)c1ccc(/C=C(\NC(=O)c2ccccc2)C(=O)NC(CC(=O)O)C(=O)O)cc1 (stereo not given) | 41.9 µM (inactive) | > 100 µM (inactive) | > 100 µM (inactive) | > 100 µM (inactive) | 18.2 µM (inactive) | > 100 µM (inactive) | > 100 µM (inactive) | > 100 µM (inactive) | 65.9 µM (inactive) | 52.7 µM (inactive) | > 100 µM (inactive) | > 100 µM (inactive) | > 100 µM (inactive) | > 100 µM (inactive) | > 100 µM (inactive) | > 100 µM (inactive) | 1.99 µM (inactive) | 75 µM (inactive) | 82 µM (inactive)
COC12OC3CC4(C)C(=CC3OC(OC(C)C1O)C2O)CCC1C4CCC2(C)C(c3ccc(=O)oc3)CCC12O (stereo not given) | 0.00134 µM (active) | 0.00119 µM (active) | 0.00196 µM (active) | 0.00136 µM (active) | 0.00237 µM (active) | 0.0023 µM (active) | 0.00281 µM (active) | 0.00105 µM (active) | 0.0014 µM (active) | 0.00155 µM (active) | 0.00132 µM (active) | 0.00142 µM (active) | 0.00234 µM (active) | 0.00385 µM (active) | < 0.001 µM (active) | 0.00213 µM (active) | 0.00202 µM (active) | 0.0014 µM (active) | 0.00233 µM (active)
O=C(/C=C/c1ccco1)c1cccc(C(=O)/C=C/c2ccco2)n1 | 3.4 µM (inactive) | 27.1 µM (inactive) | 23.6 µM (inactive) | 2.78 µM (inactive) | 2.91 µM (inactive) | 27.2 µM (inactive) | 40.1 µM (inactive) | 2.19 µM (inactive) | 42.4 µM (inactive) | 19.4 µM (inactive) | 26.1 µM (inactive) | 13.2 µM (inactive) | 25.5 µM (inactive) | 15.4 µM (inactive) | 12.6 µM (inactive) | 8.41 µM (inactive) | 45.5 µM (inactive) | 1.37 µM (inactive) | 27.8 µM (inactive)
CC(=O)n1nc(-c2[nH]c(C)c(-c3nn(C(C)=O)c(=S)o3)c2C)oc1=S | 97.7 µM (inactive) | > 100 µM (inactive) | > 100 µM (inactive) | > 100 µM (inactive) | > 100 µM (inactive) | > 100 µM (inactive) | > 100 µM (inactive) | 6.89 µM (inactive) | > 100 µM (inactive) | > 100 µM (inactive) | > 100 µM (inactive) | > 100 µM (inactive) | > 100 µM (inactive) | > 100 µM (inactive) | > 100 µM (inactive) | > 100 µM (inactive) | > 32.3 µM (inactive) | 41 µM (inactive) | > 100 µM (inactive)
Cc1cc(C)c(S(=O)(=O)N[C@@H](/C=C(\Br)CO)C(C)C)c(C)c1 | 30.5 µM (inactive) | 30.8 µM (inactive) | 15.8 µM (inactive) | 33.4 µM (inactive) | 18.5 µM (inactive) | 30.5 µM (inactive) | 23.6 µM (inactive) | 24.2 µM (inactive) | 27.7 µM (inactive) | 21.2 µM (inactive) | 34.3 µM (inactive) | 17.2 µM (inactive) | 23.4 µM (inactive) | 24.9 µM (inactive) | 16.8 µM (inactive) | 56 µM (inactive) | 45 µM (inactive) | 25.1 µM (inactive) | 13.2 µM (inactive)
O=[N+]([O-])C(=C(Cl)Cl)C(Cl)=C(Cl)Cl | 0.0895 µM (active) | 6.44 µM (inactive) | 0.0368 µM (active) | 0.0929 µM (active) | 0.0118 µM (active) | 0.0202 µM (active) | 0.505 µM (active) | 0.0166 µM (active) | 1.96 µM (inactive) | 0.706 µM (active) | 2.02 µM (inactive) | 0.778 µM (active) | 0.0391 µM (active) | 0.105 µM (active) | 0.497 µM (active) | 4.6 µM (inactive) | 1.39 µM (inactive) | 0.13 µM (active) | 0.433 µM (active)
Cc1nn(C(=O)c2ccncc2)c2c1C(c1ccc(Cl)cc1)SC(=N)N2 (stereo not given) | > 10 µM (inactive) | > 10 µM (inactive) | > 10 µM (inactive) | > 10 µM (inactive) | > 10 µM (inactive) | > 10 µM (inactive) | > 10 µM (inactive) | > 10 µM (inactive) | > 10 µM (inactive) | > 10 µM (inactive) | > 10 µM (inactive) | > 10 µM (inactive) | > 10 µM (inactive) | > 10 µM (inactive) | > 10 µM (inactive) | > 10 µM (inactive) | > 10 µM (inactive) | > 10 µM (inactive) | > 10 µM (inactive)
